Test results taken from patent publication US6355799B1, “Substituted benzene compounds, process for their preparation, and herbicidal and defoliant compositions containing them” (ISK Americas Incorporated, priority 1997, dated 2002).

Legend:
Assay type in all cases: in vivo
[1] = system: green foxtail (Setaria viridis, SETVI); test: Pre-emerge test, greenhouse herbicide activity screening; conditions: phytotoxicity rating 0-100, 14 days after application
Description: (§1) A standard greenhouse herbicide activity screening system was used to evaluate the herbicidal efficacy and crop safety of these test compounds. Seven broadleaf weed species including redroot pigweed (Amaranthus retroflexus, AMARE, velvetleaf (Abutilon theophrasti, ABUTH), sicklepod (Cassia obtusifolia, CASOB), ivyleaf morningglory (Ipomoea hederacea, IPOHE), lambsquarters (Chenopodium album, CHEAL), common ragweed (Ambrosia artemisizfolia L., AMBEL), and cocklebur (Xanthium strumarium, XANST) were used as test species. Four grass weed species including green foxtail (Setaria viridis, SETVI), barnyardgrass (Echinochloa crus-galli, ECHCG), johnsongrass (Sorghum halepense, SORHA), and large crabgrass (Digitaria sanguinalis, DIGSA) were also used. In addition, three crop species, field corn (Zea mays L., var. Dekalb 535, CORN), soybean (Glycine max L., var. Pella 86, SOY), and is upland rice (Oryza sp., var. Tebonnet, RICE) were included.
(§2) All plants were grown in 10 cm square plastic pots which were filled with a sandy loam soil mix. For pre-emerge tests, seeds were planted one day prior to application of the test compounds. For post-emerge tests, seeds were planted 8-21 days prior to the test to allow emergence and good foliage development prior to application of the test substances. At the time of the post-emerge application, plants of all species were usually at the 2-3 leaf stage of development.
(§3) All test compounds Were dissolved in acetone and applied to the test units in a volume of 187 l /ha. Test materials were applied at rates ranging from 15 g ai/ha to 1000 g ai/ha using a track sprayer equipped with a TJ8001E even flow flat fan spray nozzle. Plants were arranged on a shelf so that the top of the canopy (post-emerge) or top of the soil surface (pre-emerge) was 40-45 cm below the nozzle. Pressurized air was used to force the test solution through the nozzle as it was mechanically advanced (via electrically driven chain drive) over the top of all test plants/pots. This application simulates a typical commercial field herbicide application.
(§4) In the post-emerge test, a commercial non-ionic surfactant was also included (0.25% v/v) to enhance wetting of the leaf surfaces of target plants. Immediately after application, test units of the pre-emerge applications were watered at the soil surface to incorporate the test materials. Subsequently, these test units were bottom-watered. Post-emerge test units were always bottom-watered.
(§5) At 14 days after application of the test materials, phytotoxicity ratings were recorded. A rating scale of 0-100 was used as previously described in Research Methods in Weed Science, 2nd edition, B. Truelove, Ed., Southern Weed Science Society, Auburn University, Auburn, Ala. 1977. Briefly, “0” corresponds to no damage and “100” corresponds to complete death of all plants in the test unit. This scale was used both to determine efficacy against weed species and damage to crop species. Herbicide activity data for various compounds of this invention, which are shown by compound No. in Tables 1-8, are shown in Tables 11 and 12.

[2] = system: large crabgrass (Digitaria sanguinalis, DIGSA); test: as above; conditions: phytotoxicity rating 0-100, 14 days after application
Description: as §1, §2, §3, §4, §5

[3] = system: ivyleaf morningglory (Ipomoea hederacea, IPOHE); test: as above; conditions: phytotoxicity rating 0-100, 14 days after application
Description: as §1, §2, §3, §4, §5

[4] = system: lambsquarters (Chenopodium album, CHEAL); test: as above; conditions: phytotoxicity rating 0-100, 14 days after application
Description: as §1, §2, §3, §4, §5

[5] = system: sicklepod (Cassia obtusifolia, CASOB); test: as above; conditions: phytotoxicity rating 0-100, 14 days after application
Description: as §1, §2, §3, §4, §5

[6] = system: barnyardgrass (Echinochloa crus-galli, ECHCG); test: as above; conditions: phytotoxicity rating 0-100, 14 days after application
Description: as §1, §2, §3, §4, §5

[7] = system: velvetleaf (Abutilon theophrasti, ABUTH); test: as above; conditions: phytotoxicity rating 0-100, 14 days after application
Description: as §1, §2, §3, §4, §5

[8] = system: redroot pigweed (Amaranthus retroflexus, AMARE); test: as above; conditions: phytotoxicity rating 0-100, 14 days after application
In short: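 Plants grown in 10 cm pots of sandy loam mix received acetone-dissolved compounds through a moving flat-fan nozzle. Doses ranged from 15 to 1000 g ai/ha. Pre-emerge pots were seeded one day earlier, post-emerge pots 8–21 days earlier. Fourteen days on, each pot was graded 0–100 for damage.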

[9] = system: green foxtail (Setaria viridis, SETVI); test: Post-emerge test, greenhouse herbicide activity screening; conditions: post-emerge, 14 days after application, rating scale 0-100
Description: as §1, §2, §3, §4, §5

[10] = system: large crabgrass (Digitaria sanguinalis, DIGSA); test: as above; conditions: post-emerge, 14 days after application, rating scale 0-100
Description: as §1, §2, §3, §4, §5

[11] = system: ivyleaf morningglory (Ipomoea hederacea, IPOHE); test: as above; conditions: post-emerge, 14 days after application, rating scale 0-100
Description: as §1, §2, §3, §4, §5

[12] = system: lambsquarters (Chenopodium album, CHEAL); test: as above; conditions: post-emerge, 14 days after application, rating scale 0-100
Description: as §1, §2, §3, §4, §5

[13] = system: redroot pigweed (Amaranthus retroflexus, AMARE); test: as above; conditions: post-emerge, 14 days after application
Description: as §1, §2, §3, §4, §5

[14] = system: sicklepod (Cassia obtusifolia, CASOB); test: as above; conditions: post-emerge, 14 days after application, rating scale 0-100
Description: as §1, §2, §3, §4, §5

[15] = system: barnyardgrass (Echinochloa crus-galli, ECHCG); test: as above; conditions: post-emerge, 14 days after application, rating scale 0-100
Description: as §1, §2, §3, §4, §5

[16] = system: velvetleaf (Abutilon theophrasti, ABUTH); test: as above; conditions: post-emerge, 14 days after application, rating scale 0-100
Description: as §1, §2, §3, §4, §5

[17] = system: field corn (Zea mays L., var. Dekalb 535, CORN); test: Post-emerge test, crop safety; conditions: post-emerge, 14 days after application, rating scale 0-100
In short: (§6)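 Herbicidal damage is scored 0 (none) to 100 (complete plant death) two weeks after a simulated field spray. Rates span 15–1000 g ai/ha, delivered in acetone at 187 l/ha. For post-emergence treatments, plants have 2–3 leaves and the spray carries 0.25% v/v non-ionic surfactant.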

[18] = system: upland rice (Oryza sp., var. Tebonnet, RICE); test: Post-emerge test, crop safety; conditions: post-emerge, 14 days after application, rating scale 0-100
In short: as §6

[19] = system: field corn (Zea mays L., var. Dekalb 535, CORN); test: Pre-emerge test, crop safety; conditions: crop damage rating 0-100, 14 days after application
In short: (§7)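 Visual ratings on a 0-100 scale (0 no damage, 100 all plants dead) were taken at 14 days after treatment. Rates of 15-1000 g ai/ha in acetone, 187 l/ha, were sprayed onto soil one day after planting (pre-emerge) or onto 2-3 leaf plants with 0.25% v/v surfactant (post-emerge).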

[20] = system: upland rice (Oryza sp., var. Tebonnet, RICE); test: Pre-emerge test, crop safety; conditions: crop damage rating 0-100, 14 days after application
In short: as §7

## COc1c(Cl)cc(F)c(-n2c(=O)cc(C(F)(F)F)n(C)c2=O)c1NC(=O)OCc1ccc(C(F)(F)F)cc1 [4-43]
[1]; 63 g ai/ha
  Pre-emerge Herbicidal Activity SETVI: 0
[1]; 250 g ai/ha
  Pre-emerge Herbicidal Activity SETVI: 70
[2]; 63 g ai/ha
  Pre-emerge Herbicidal Activity DIGSA: 0
[2]; 250 g ai/ha
  Pre-emerge Herbicidal Activity DIGSA: 60
[3]; 63 g ai/ha
  Pre-emerge Herbicidal Activity IPOHE: 0
[3]; 250 g ai/ha
  Pre-emerge Herbicidal Activity IPOHE: 10
[4]; 63 g ai/ha
  Pre-emerge Herbicidal Activity CHEAL: 30
[4]; 250 g ai/ha
  Pre-emerge Herbicidal Activity CHEAL: 80
[5]; 63 g ai/ha
  Pre-emerge Herbicidal Activity CASOB: 0
[5]; 250 g ai/ha
  Pre-emerge Herbicidal Activity CASOB: 40
[6]; 63 g ai/ha
  Pre-emerge Herbicidal Activity ECHCG: 0
[6]; 250 g ai/ha
  Pre-emerge Herbicidal Activity ECHCG: 10
[7]; 63 g ai/ha
  Pre-emerge Herbicidal Activity ABUTH: 20
[7]; 250 g ai/ha
  Pre-emerge Herbicidal Activity ABUTH: 50
[8]; 63 g ai/ha
  Pre-emerge Herbicidal Activity AMARE: 10
[8]; 250 g ai/ha
  Pre-emerge Herbicidal Activity AMARE: 60
[9]; 63 g ai/ha
  phytotoxicity rating SETVI: 0
[9]; 250 g ai/ha
  phytotoxicity rating SETVI: 40
[10]; 63 g ai/ha
  phytotoxicity rating DIGSA: 0
[10]; 250 g ai/ha
  phytotoxicity rating DIGSA: 0
[11]; 63 g ai/ha
  phytotoxicity rating IPOHE: 40
[11]; 250 g ai/ha
  phytotoxicity rating IPOHE: 40
[12]; 63 g ai/ha
  phytotoxicity rating CHEAL: 80
[12]; 250 g ai/ha
  phytotoxicity rating CHEAL: 90
[13]; 63 g ai/ha, rating scale 0-100 (0 no damage, 100 complete death)
  phytotoxicity rating AMARE: 70
[13]; 250 g ai/ha, rating scale 0-100
  phytotoxicity rating AMARE: 100
[14]; 63 g ai/ha
  phytotoxicity rating CASOB: 50
[14]; 250 g ai/ha
  phytotoxicity rating CASOB: 60
[15]; 63 g ai/ha
  phytotoxicity rating ECHCG: 0
[15]; 250 g ai/ha
  phytotoxicity rating ECHCG: 10
[16]; 63 g ai/ha
  phytotoxicity rating ABUTH: 60
[16]; 250 g ai/ha
  phytotoxicity rating ABUTH: 100
[17]; 63 g ai/ha
  phytotoxicity rating CORN (crop damage): 0
[17]; 250 g ai/ha
  phytotoxicity rating CORN (crop damage): 10
[18]; 63 g ai/ha
  phytotoxicity rating RICE (crop damage): 0
[18]; 250 g ai/ha
  phytotoxicity rating RICE (crop damage): 0
[19]; 63 g ai/ha
  Pre-emerge Herbicidal Activity CORN: 0
[19]; 250 g ai/ha
  Pre-emerge Herbicidal Activity CORN: 0
[20]; 63 g ai/ha
  Pre-emerge Herbicidal Activity RICE: 0
[20]; 250 g ai/ha
  Pre-emerge Herbicidal Activity RICE: 10
